{"source": "patent US20170166928A1", "about": "“Compositions And Methods For Genetically Modifying Yeast” (priority 2015, published 2017)", "test_system": "Candida albicans", "experiment": "Growth of Candida albicans strains in medium with drug", "format": "cell-based", "settings": "for doubling time: liquid growth in 1.2 μg/ml fluconazole; for drug resistance of cdr1/cdr1 cdr2/cdr2 double mutants versus parental isolate: clinical isolate Can90", "protocol": "Candida albicans strain SC5314 was used for all experiments unless otherwise noted. The fluconazole-resistant C. albicans strain Can90 was kindly provided by the Massachusetts General Hospital. Yeast strains were grown in YPD (1% Bacto Yeast extract, 2% Bacto Peptone, 2% Dextrose) medium supplemented with 0.27 mM uridine, and selected using Nourseothricin (Nat) at a concentration of 200 μg/ml. Transformations were performed using the lithium acetate method (27). Flipout of Nat^R gene from Cas9-expressing Duet vector pV1025 was done by induction of flippase by growth in Difco yeast carbon base with bovine serum albumin, and screening for isolates that had lost the Nat^R gene. Filamentation experiments were performed with yeast grown overnight in liquid YPD, washed twice in RPMI-1640 medium (Cat #22400-105, Life Technologies) supplemented with 10% fetal bovine serum, and incubated in RPMI+10% FBS for the indicated time at a starting OD of 0.1. Growth curves were performed in a clear-bottomed 96-well plate, incubated with shaking at 30° C. in a Tecan Saphire^2 plate reader, reading optical density at 600 nm every 5 minutes for the indicated time. YPD-grown overnight yeast cultures were used to inoculate these wells to an initial OD of 0.05. CRISPR-mutagenized loci were verified by sequence analysis of PCR products amplified from the target locus and by restriction digest where applicable.", "data": [{"smiles": "OC(Cn1cncn1)(Cn1cncn1)c1ccc(F)cc1F", "note": "[fluconazole]", "values": [{"measurement": "drug sensitivity of snf1-K81R strain", "setting": "SC5314 snf1-K81R", "value": "hypersensitive"}, {"measurement": "doubling time", "setting": "ade2 CDR1 CDR2 strain", "value": 6, "unit": "h"}, {"measurement": "doubling time", "setting": "ade2 cdr1 cdr2 mutant", "value": 12, "unit": "h"}, {"measurement": "drug resistance of cdr1/cdr1 cdr2/cdr2 double mutants versus parental isolate", "value": "no longer displayed the hyper-resistance"}]}, {"smiles": "C[C@@H]1C[C@@H]([C@H](O)CC2CC(=O)NC(=O)C2)C(=O)[C@@H](C)C1", "note": "[cycloheximide]", "values": [{"measurement": "drug resistance of cdr1/cdr1 cdr2/cdr2 double mutants versus parental isolate", "value": "no longer displayed the hyper-resistance"}]}]}
